Here are results for 4 substances from patent US6806377B1, “Preparation of metallocenes carrying a cyclopentadiene comprising a basic donor group” (The University of Leeds, priority 1999, dated 2004).

A short description of series [1]: stability towards water, air, moisture and heat (qualitative statements). Format: physicochemical. Particulars: for air / moisture stability: air and moisture.
Series [2] is described as follows: solubility in solvents (qualitative statements). Format: physicochemical.
For series [3] the following is noted: background statement; cited from earlier work.

Turning to (Cp(CH2)2N(CH2)5)2TiMe2 [Compound 3], in series [1], the thermal stability result is given as “thermally stable” and the “air / moisture stability” value is “highly air sensitive”.
With “(CpCH2CH2N(CH2)2(CH2)2)2TiCl2.2HCl [Compound 2]”, the “solubility in a polar solvent” value in series [2] (polar solvent such as methanol, water and acetonitrile) is reported as “soluble”. Moreover, the water solubility result in series [2] (water) is recorded as “water soluble”. Also, in series [1], the “air / moisture stability” value is given as “air stable”. Besides, in series [1] (storage of the protected titanocene), the storage stability entry was “can be stored indefinitely”.
Take (CpCH2CH2N(CH2)2)2)TiCl2 [Compound 1]: in series [2] (solvents such as ether and toluene), the “solubility in aprotic, polar and non-polar solvents” value is “soluble”. Further, the “air / moisture stability” value in series [1] was “highly air and moisture sensitive”.
For titanocene dichloride, the “stability in aqueous solution” value in series [3] was “unstable”.
